Reference: patent US9198886B2, “Use of 2,5-dihydroxybenzene for the treatment of ocular diseases” (priority 2006, dated 2015)

Key:
skeletal muscle lesions = assay: Oral treatment of patients with skeletal muscle and tendon lesions (MRI, function); assay type: in vivo, human
Description: The capacity of a 2,5-dihydroxybenzene derivative, the 2,5-dihydroxybenzene sulfonic acid (DHBS) to effectively treat skeletal muscle lesions is shown herein. The efficacy is evident, not only in the images of conventional diagnosis that show the recovery of the muscular damage, but also there is a clear functional recovery of the affected limb.
The first patient's left quadriceps was broken by practicing sports. […] At that moment, the patient starts a daily oral treatment with 500 mg of 2,5-dihydroxybenzene sulfonic acid (DHBS) for two weeks. […] An observation that may be applied to the other cases that support this example.
Other patient has an hematoma and muscular breaking of the brachial biceps, as shown in the magnetic resonance image (MRI) of FIG. 12A. The hematoma can be appreciated externally (FIG. 13A) and the lesion, produced by professional practice (dancing) the day before the consultation, limits the elbow flexion (FIG. 13B) and extension (FIG. 13C).

pterygium = assay: Topical solution in a patient with unilateral pterygium; assay type: in vivo, human; conditions: 2.5% solution, one drop four times per day, two weeks
Source text: FIG. 3. […] The treatment consists of the application of 4 drops of said solution daily, for two weeks.
The solution was applied topically to a patient suffering from unilateral pterygium, as one drop four times per day.

endometriotic lesions = assay: Rat model of endometriosis, histology of autologous implant; assay type: in vivo, Sprague-Dawley rats; conditions: 200 mg/kg/day i.p., two weeks
Source text: In these rats, the epithelial layer (a) and the stroma (b) are clearly observed in the endometrium, while longitudinal (c) and circular (d) normal layers of smooth muscle cells are observed in the myometrium adjacent to the peritoneal tissue (e). […] The neovascularization observed in the uterine tissue implanted in control rats (shown with arrows in A) is not present in rats treated with 2,5-dihydroxybenzenesulfonic (DHBS) (C). • D) Magnification of the area marked with a box in C.
Sprague-Dawley rats were anesthetized as described (Fernández-Tornero C et al. J Biol Chem, 2003). Endometriotic lesions were induced using a known rat model of endometriosis (Vernon M W and Wilson E A. Fertil Steril, 1985). In summary, 2 mm fragments of the cervix were autologously implanted between branches in the mesenteric vascular tree. The rats were treated or not treated (control) daily during two weeks after the surgery with 2,5-dihydroxybenzene sulfonic acid (DHBS) (200 mg/kg; i.p.). Then, the rats were sacrificed and the endometrial ectopic tissue was removed to make its histological examination. […] This example illustrates the therapeutic activity of 2,5-dihydroxybenzene sulfonate (DHBS) in the treatment of endometriosis.

infantile hemangioma = assay: Topical cream in a child with infantile hemangioma; assay type: in vivo, human; conditions: cream 2.5%, topical twice a day, 1, 2 and 3 months, one child
Source text: Photographs of a child showing the effects of the topical treatment with a cream comprising 2,5-dihydroxybenzenesulfonic (DHBS) (2.5%) in a baby suffering infantile hemangioma.
The cream comprising 2,5-dihydroxybenzene sulfonic (2.5%) was topically applied twice a day for 3 months on the face of a child suffering from infantile hemangioma.

[1] = target: fibroblast growth factor-1 (FGF-1) (Homo sapiens, UniProt P05230); assay: Co-crystal structure with fibroblast growth factor-1; assay type: binding
Source text: FIG. 24. 2-acetoxy-5-hydroxybenzenesulfonic acid co-crystallized with fibroblast growth factor-1. […] The compound occupies a place that is very close to that described occupied by 2,5-dihydroxybenzenesulfonic acid, the aromatic ring of which forms a cation-π bond with the N^ε group of lysine 132, which is marked in panel A as reference. […] In panels A and B, the protein surface is colored according to its electrostatic potential (light grey: negative charge; dark grey: positive charge; white: lack of charge).
FIG. 25. 5-acetoxy-2-hydroxybenzenesulfonic acid co-crystallized with fibroblast growth factor-1. […] The compound occupies a place that is very close to that described occupied by 2,5-dihydroxybenzenesulfonic acid, the aromatic ring of which forms a cation-π bond with the N^ε group of lysine 132, which is marked in panel A as reference. […] In panels A and B, the protein surface is colored according to its electrostatic potential (light grey: negative charge; dark grey: positive charge; white: lack of charge).
FIG. 26. 2,5-diacetoxybenzenesulfonic acid co-crystallized with fibroblast growth factor-1. […] The compound occupies a place that is very close to that described occupied by 2,5-dihydroxybenzenesulfonic acid, the aromatic ring of which forms a cation-π bond with the N^ε group of lysine 132, which is marked in panel A as reference. […] In panels A and B, the protein surface is colored according to its electrostatic potential (light grey: negative charge; dark grey: positive charge; white: lack of charge).
Based on the crystal diffraction of the FGF-1:2-acetoxy-5-hydroxybenzene sulfonic acid, FGF-1:5-acetoxy-2-hydroxybenzene sulfonic acid and FGF-1:2,5-diacetoxybenzene sulfonic acid complexes, the structures of the complexes were calculated and represented. FIGS. 24, 25 and 26, which show the surface of the dyed protein according to its electrostatic potential (light grey: negative charge; dark grey: positive charge; white: lack of charge), show the manner in which 2-acetoxy-5-hydroxybenzene sulfonic acid, 5-acetoxy-2-hydroxybenzene sulfonic acid and 2,5-diacetoxybenzene sulfonic acid interact, respectively, with FGF-1.

[2] = patient with brachial biceps breaking, 1500 mg/day p.o., 20 days
[3] = patient with broken left quadriceps, 500 mg/day p.o., two weeks

fibroblast growth factor-1 (FGF-1), sequence (P05230 whole entry, species assumed): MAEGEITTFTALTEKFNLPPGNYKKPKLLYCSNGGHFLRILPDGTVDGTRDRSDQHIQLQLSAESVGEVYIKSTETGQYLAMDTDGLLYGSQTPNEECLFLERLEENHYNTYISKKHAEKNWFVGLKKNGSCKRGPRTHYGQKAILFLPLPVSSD

| Compound | MRI tendon lesion (skeletal muscle lesions; patient with Achilles tendon breaking, 1500 mg/day p.o., two months) | MRI size of lesion and hematoma (skeletal muscle lesions; [2]) | elbow function (skeletal muscle lesions; [2]) | MRI of quadriceps lesion and hematoma (skeletal muscle lesions; [3]) | functional recovery of the leg (skeletal muscle lesions; [3]) | time to functional recovery and resolution vs conventional treatments (antiinflammatories) (skeletal muscle lesions; [3]) | MRI muscular lesion (skeletal muscle lesions; patient with semitendinous muscle lesion, 1500 mg/day p.o., 11 days) | pterygium appearance (pterygium) | histology of implanted tissue (hematoxylin-eosin) (endometriotic lesions) | neovascularization of implanted uterine tissue (endometriotic lesions) | appearance of the hemangioma lesion (infantile hemangioma) | binding site on FGF-1 ([1]; crystal diffraction of the complex) | acetoxyl groups of the compound when bound to FGF-1 ([1]; crystal diffraction, electron density contoured at 1σ) |
| --- | --- | --- | --- | --- | --- | --- | --- | --- | --- | --- | --- | --- | --- |
| O=S(=O)(O)c1cc(O)ccc1O [DHBS, 2,5-dihydroxybenzene sulfonic acid] | marked reduction of said lesion | markedly reduces the size of the lesion and of the hematoma | recovers the functionality of the elbow flexion and extension | the hematoma can no longer be observed | able to extend the left leg almost completely | shorter period than the one required in the case of conventional treatments | reduced the muscular lesion | partial reversal of the pterygium | athrophy of the cervix tissue implanted | not present | substantial recovery of the lesion |  |  |
| CC(=O)Oc1ccc(OC(C)=O)c(S(=O)(=O)[O-])c1.[K+] [DABS, potassium 2,5-diacetoxybenzene sulfonate] |  |  |  |  |  |  |  |  |  |  |  | very close to the one that has been described occupied by 2,5-dihydroxybenzene sulfonic acid | conserve the acetoxyl groups |
